Assay results taken from patent US20230322717A1, “SOLID FORM OF PYRAZINE SUBSTITUTED NICOTINAMIDE, AND PREPARATION AND USE THEREOF” (Shenzhen TargetRx, Inc., priority 2020, published 2023).
≈ marks a conversion by molar mass, not a printed value. Blank lines part the entries; values can stand above or below the molecule they belong to.

Experiments:
Type in all cases: physicochemical
[1] = Stability study of the crystal form VI of compound A (high temperature, high humidity, light)
[2] = Dynamic moisture adsorption and desorption analysis (DVS)
Experimental: The instrument model used for dynamic moisture adsorption and desorption analysis was IGA Sorp (Hidentity Isochema). The samples were measured in a gradient mode with a moisture range of 0% to 90%, wherein the humidity increment of each gradient was 10%.

[3] = Grinding research of crystal forms (XRPD before and after grinding); conditions: ground in a mortar at room temperature
From the text: The solid XRPDs before and after grinding were compared.

[4] = Dissolution study of compound A tablets (solubilizer and glidant study)
[5] = Solubility study in SGF, FaSSIF and FeSSIF (HPLC of filtrate, XRPD of solid)
Experimental: The solubilities of the crystal form I of compound A and the crystal form I of compound A p-toluenesulfonate in SGF (simulated gastric fluid), FaSSIF (fasted state simulated intestinal fluid) and FeSSIF (fed state simulated intestinal fluid) were studied.
The solubilities of samples in SGF, FaSSIF and FeSSIF at 37° C. for 24 hours were determined. 40 mg of the sample was placed in a sample bottle, and 1.5 mL of solvent was added. The mixture was mixed well, and shaken on a shaker at 200 rpm for 24 hours. The suspension was filtered at 0.5, 2 and 24 hours. The filtrate was analyzed by HPLC, and the solid was tested by XRPD.

[6] = Cooling crystallization: solubility of the crystal form I of compound A in heated solvents; conditions: organic solvent or mixture, thermodynamic from solid
Experimental: About 30 mg of the crystal form I of compound A was added to different solvents and heated until dissolved. The resulting solution was then slowly cooled to room temperature. PLM and XRPD tests were performed on the resulting solid crystal forms.

[7] = Solubility study of the starting material (the crystal form I of compound A) in different solvents; conditions: in tetrahydrofuran, acetone, 2-butanone, acetonitrile and ethyl acetate
Experimental: About 2 mg of the starting material was weighed and added into a sample bottle, and different solvents were added respectively, until the starting material was dissolved.

[8] = Stability study of the crystal form I of compound A and the crystal form I of compound A p-toluenesulfonate (HPLC, XRPD); conditions: 7 days at 40° C./75% RH and 60° C.
Experimental: A certain amount of samples of the crystal form I of compound A and the crystal form I of compound A p-toluenesulfonate (Batch No.: PTSA-A1) were placed in a stability test chamber, and kept at 40° C./75%RH and 60° C. for 7 days, respectively. The samples were tested by HPLC and XRPD at various time points.

[9] = Heating of the crystal form by DSC (solvent removal); conditions: heated to 150° C. by DSC
Experimental: The instrument model for differential scanning calorimetry analysis was DSC Q200 or Discovery DSC 250 (TA, USA). Samples were accurately weighed and placed in a punctured sample pot for DSC, and the exact mass of the sample was recorded. The samples were heated to the final temperature (e.g. 300° C. or 350° C.) at a ramp rate of 10° C./min.
The collected crystal form I of compound A was subjected to DSC analysis by General method 4. […] The crystal form I of compound A was heated to 150° C. by DSC and then the solvent was removed.

stability (appearance, crystal form and related substances) ([1]; 10 days under the condition of light): stable
stability (appearance, crystal form and related substances) ([1]; 30 days, 60° C., 25° C./92.5%RH, 40° C./75%RH, and light (visible 4500 Lux, near-UV 85µw/cm^2)): stable
crystal form after stability test (XRPD) ([1]; high temperature, high humidity, high temperature and high humidity, light): not changed
water absorption ([2]; 0-80%RH): 1.1852%
water absorption ([2]; 0-90%RH): 1.7452%
water absorption ([2]; 10%RH): 0.1389%
crystal form after DVS test (XRPD) ([2]; before and after DVS test): not changed
solid form / crystallinity after grinding (XRPD) [3]: slightly decreased
Compound: O=C(Nc1ccc(OC(F)(F)Cl)cc1)c1cnc(N2CC[C@@H](F)C2)c(-c2cnccn2)c1 [crystal form VI of compound A, (R)-N-(4-(chlorodifluoromethoxy)phenyl)-6-(3-fluoropyrrolidin-1-yl)-5-(pyrazin-2-yl)nicotinamide]

solid form / crystallinity after grinding (XRPD) ([3]; listed as crystal form VII): transformed into amorphous forms
Compound: O=C(Nc1ccc(OC(F)(F)Cl)cc1)c1cnc(N2CC[C@@H](F)C2)c(-c2cnccn2)c1 [crystal form VII of compound A, (R)-N-(4-(chlorodifluoromethoxy)phenyl)-6-(3-fluoropyrrolidin-1-yl)-5-(pyrazin-2-yl)nicotinamide]

solid form / crystallinity after grinding (XRPD) ([3]; listed as crystal form III): transformed into amorphous forms
Compound: O=C(Nc1ccc(OC(F)(F)Cl)cc1)c1cnc(N2CC[C@@H](F)C2)c(-c2cnccn2)c1 [crystal form III of compound A, (R)-N-(4-(chlorodifluoromethoxy)phenyl)-6-(3-fluoropyrrolidin-1-yl)-5-(pyrazin-2-yl)nicotinamide]

dissolution of compound A in the formulation ([4]; colloidal silica 200 (glidant) added): improved
dissolution of compound A in the formulation ([4]; increasing amount of sodium lauryl sulfate (solubilizer)): decreased
Compound: O=C(Nc1ccc(OC(F)(F)Cl)cc1)c1cnc(N2CC[C@@H](F)C2)c(-c2cnccn2)c1 [compound A, (R)-N-(4-(chlorodifluoromethoxy)phenyl)-6-(3-fluoropyrrolidin-1-yl)-5-(pyrazin-2-yl)nicotinamide]

water absorption ([2]; 0-60%RH): about 0.2%
water absorption ([2]; 0-80%RH): about 0.7%
water absorption ([2]; 0-90%RH): about 1.3%
hygroscopicity (DVS) ([2]; moisture range 0% to 90%): slightly hygroscopic
crystal form of the undissolved solid (XRPD) ([5]; SGF, FaSSIF and FeSSIF for 2 hours): changed
dependence of solubility on pH ([5]; SGF, FaSSIF, FeSSIF, 37° C.): affected by pH value
Solubility ([6]; ACN, became clear at 50° C.): 298 mg/mL (≈ 642 mM)
Solubility ([6]; Acetone, became clear at 50° C.): 150 mg/mL (≈ 324 mM)
Solubility ([6]; Isobutanol, became clear at 70° C.): 10.1 mg/mL (≈ 21.8 mM)
Solubility ([6]; MeOH, became clear at 50° C.): 34.1 mg/mL (≈ 73.5 mM)
solubility in solvents (in words) [7]: good solubility
crystal form stability (XRPD) [8]: remained unchanged
crystal form after heating and solvent removal [9]: changed into the crystal form VI
Compound: O=C(Nc1ccc(OC(F)(F)Cl)cc1)c1cnc(N2CC[C@@H](F)C2)c(-c2cnccn2)c1 [crystal form I of compound A, (R)-N-(4-(chlorodifluoromethoxy)phenyl)-6-(3-fluoropyrrolidin-1-yl)-5-(pyrazin-2-yl)nicotinamide]
solubility compared with the other form ([5]; FeSSIF vehicle, 0.5 and 2 hours, 37° C.): higher solubility than that of the p-toluenesulfonate
